Converted amounts (≈) assume the structure as drawn.
Tests used:
[1] = Steady-state plasma concentrations of ketoconazole in sheep (hplc); type: in vivo
Experimental: Following the first dose on the first study day, venous blood samples (5 ml, anticoagulated with EDTA) were collected at 0.17, 0.33, 0.5, 0.75, 1, 2, 3, 4, 6, 8, 12, 15, 22, 27 and 32 h. […] Ketoconazole administration was continued throughout the latter blood sampling period.
Some blood samples taken on days 18-23 were centrifuged to yield plasma which was frozen at −20° C. until analysed for ketoconazole by a specific hplc method. Aliquots of plasma (0.1 ml) were vortexed vigorously with 1 ml acetonitrile (containing 8 mg of fluoxetine hydrochloride as internal standard) for 15 sec. The mixture was centrifuged at 1200 g for 10 min to sediment proteins, 0.5 ml of the supernatant was aspirated, transferred to a clean tube and evaporated to dryness at 50° C. using dry N2. The extract was reconstituted in 0.2 ml of hplc mobile phase and 0.02 ml aliquots were injected onto the hplc column. The hplc system consisted of a Merck RP Select B C18 column (25 cm×4.6 mm id), a mobile phase of 55% acetonitrile in 0.01% v/v H3PO4 and 0.01% W/V NaCl. The solvent was pumped at a flow rate of 1.5 ml/min and eluting compounds were detected by their UV absorbence at 210 nm.

B16M = settings: day 3 in culture, MTT
HT-29 = settings: HT-29, day 3 in culture, MTT
SKMEL = settings: day 3 in culture, MTT
[2] = literature (Borel, 1989; Reynolds et al, 1992; Eichenberger et al, 1989a); cited from earlier work

Steady-state concentration of ketoconazole in plasma (mean of trough samples) ([1]; sheep 14, days 18-23, ketoconazole 10 mg/kg po twice daily): 2.6 mg/L
Steady-state concentration of ketoconazole in plasma (mean of trough samples) ([1]; sheep 15, days 18-23, ketoconazole 10 mg/kg po twice daily): 2.19 mg/L
Steady-state concentration of ketoconazole in plasma (mean of trough samples) ([1]; sheep 16, days 18-23, ketoconazole 10 mg/kg po twice daily): 1.63 mg/L
Steady-state concentration of ketoconazole in plasma (mean of trough samples) ([1]; sheep 17, days 18-23, ketoconazole 10 mg/kg po twice daily): 3.04 mg/L
SMILES: CC(=O)N1CCN(c2ccc(OCC3COC(Cn4ccnc4)(c4ccc(Cl)cc4Cl)O3)cc2)CC1 (centres unmarked) [Ketoconazole]
ED50 (± SD) (B16M): 18.2 ± 3.9 µg/mL (≈ 34.2 µM)
ED50 (± SD) (HT-29): 12.7 ± 2.0 µg/mL (≈ 23.9 µM)
ED50 (± SD) (SKMEL): 28.3 ± 1.7 µg/mL (≈ 53.3 µM)
Maximum therapeutic plasma concentration [2]: 0.10 µg/mL
